One molecule from US10010589B2, “Modified therapeutic agents, stapled peptide lipid conjugates, and compositions thereof” (priority 2013, dated 2018) can be followed below.

In the assay the target is T1, human Glucagon-like peptide 2 receptor (GLP-2R) (Homo sapiens, UniProt O95838).
T1 construct: expressed in transfected cells
T1 sequence (O95838 1-553): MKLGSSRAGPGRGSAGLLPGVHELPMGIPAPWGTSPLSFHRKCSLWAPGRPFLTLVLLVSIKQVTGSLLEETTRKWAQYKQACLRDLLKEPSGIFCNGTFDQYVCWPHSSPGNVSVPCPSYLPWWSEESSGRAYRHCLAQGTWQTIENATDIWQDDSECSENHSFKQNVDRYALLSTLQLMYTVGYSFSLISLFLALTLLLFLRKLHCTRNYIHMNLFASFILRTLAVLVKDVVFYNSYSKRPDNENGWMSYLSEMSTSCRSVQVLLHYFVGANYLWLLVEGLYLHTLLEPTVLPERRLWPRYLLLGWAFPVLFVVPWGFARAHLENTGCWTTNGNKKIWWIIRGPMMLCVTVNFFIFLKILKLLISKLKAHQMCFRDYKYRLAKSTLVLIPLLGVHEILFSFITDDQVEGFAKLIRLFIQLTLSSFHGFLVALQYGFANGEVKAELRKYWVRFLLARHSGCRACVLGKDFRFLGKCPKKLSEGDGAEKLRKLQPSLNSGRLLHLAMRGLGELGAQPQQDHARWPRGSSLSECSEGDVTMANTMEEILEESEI
The assay is described as follows: GLP-2R CRE luciferase assay (receptor-mediated cAMP synthesis). Format: cell-based. The method, then:
CREB responsive luciferase stable HEK 293 cell line overexpressing human glucagon receptor (GCGR), glucagon-like peptide 1 receptor (GLP-1R), Glucose-dependent insulinotropic polypeptide receptor (GIPR), or Glucagon-like peptide 2 receptor (GLP-2R) was generated as follows.
HEK293 cells were infected with lent virus encoding firefly luciferase gene under the control of CRE promoter, as described in the manual (Qiagen, Netherlands) and then were selected using 1 μg/mL puromycin (Life technologies, Carlsbad) for 1 week. The survived cells were named as CRE-HEK293, expanded and then transfected with a G418 selective mammalian expression plasmid encoding human GCGR, GLP-1R, GIPR or GLP-2R. In brief, GCGR, GLP-1R, GIPR, or GLP-2R plasmid was transfected into CRE-HEK293 cells using Lipofectamine 2000 and selected with 400 μg/mL geneticin (Life technologies, Carlsbad, Calif.). […]
HEK293-GCGR-CRE, HEK293-GLP-1R-CRE, HEK293-GIPR-CRE, and HEK293-GLP-2R-CRE cells were seeded in a white 384-well plate at a density of 5,000 cells per well and cultured for 24 hours. […] On the next day, 10 μl of Bright-Glo reagent (Promega, Madison, Wis.) were added into each well and firefly luminescence was determined using an Envision multilabel plate reader (PerkinElmer, Waltham, Mass.). EC50 of each peptide was calculated using GraphPad Prism 6 software (GraphPad, San Diego, Calif.).

*1 amine or outer side, *2 acyl side, *3 side chain or, on linkers, in order; H or OH if unused. Where a SMILES comes first, the peptide text is derived from it. Bridges are numbered along the chain shown (N, C = ends). CH2CONH(CH2)4NHCOCH2 = O=C(C[*:1])NCCCCNC(=O)C[*:2]

On to `CC[C@H](C)[C@@H]1NC(=O)[C@H](Cc2ccccc2)NC(=O)[C@H](CC(=O)O)NC(=O)[C@H](CCCNC(=N)N)NC(=O)[C@H](C)NC(=O)[C@H](C)NC(=O)[C@H](CC(C)C)NC(=O)[C@@H](NC(=O)[C@H](CC(=O)O)NC(=O)[C@H](CC(C)C)NC(=O)[C@@H](NC(=O)[C@@H](NC(=O)[C@H](CC(N)=O)NC(=O)[C@H](CCSC)NC(=O)[C@H](CCC(=O)O)NC(=O)[C@H](CC(=O)O)NC(=O)[C@H](CO)NC(=O)[C@H](Cc2ccccc2)NC(=O)[C@H](CO)NC(=O)CNC(=O)[C@H](CC(=O)O)NC(=O)CNC(=O)[C@@H](N)Cc2c[nH]cn2)[C@@H](C)O)[C@@H](C)CC)CSCC(=O)NCCCCNC(=O)CSC[C@@H](C(=O)N[C@@H](Cc2c[nH]c3ccccc23)C(=O)N[C@@H](CC(C)C)C(=O)N[C@H](C(=O)N[C@@H](CCC(N)=O)C(=O)N[C@H](C(=O)N[C@@H](CCCCN)C(=O)N[C@H](C(=O)N[C@H](C(=O)N[C@@H](CC(=O)O)C(N)=O)[C@@H](C)O)[C@@H](C)CC)[C@@H](C)O)[C@@H](C)CC)NC1=O` [mTA52] (H-HGDGSFSDEMNTILDCLAARDFICWLIQTKITD-NH2; linker 16-24 via CH2CONH(CH2)4NHCOCH2), for which the EC50 is 5.6 nM.

In general, EC50 refers to the midpoint of the concentration-response curve.
